Experimental data: US20050112706A1, “Diagnostic and prognostic methods for prostate cancers” (priority 2002, published 2005)

Tests used:
HPE cells = assay: 2D difference gel electrophoresis (DIGE) of hormone-treated HPE cells; type: cell-based, human; conditions: 10^−8 M DHT or 10^−5 M flutamide vs (−) hormone
From the text: FIGS. 9A-B. Identification of androgen- and flutamide-regulated proteins by 2D difference gel electrophoresis. […] Whole cell proteins were extracted, labeled with the dyes Cy2 (ex 480, em 530), Cy3 (ex 540, em 590), and Cy5 (ex 620, em 680) respectively. The labeled proteins were mixed together and subjected to a pH gradient of pH 4 to pH 7 in the first dimension and separated by PAGE in the second dimension. […] The proteins were excised, subjected to in-gel tryptic digestion and analyzed by MS. The tryptic peptides were identified by searching the protein data bases such as the NCBInr and SWISS- PROT databases. EST databases were also searched with fragmentation data from tandem mass spectrometry when necessary.
Identification of antiandrogen-regulated genes. […] In this study, 8 proteins were identified by tryptic mapping and the sequences verified by partial amino acid sequencing of individual tryptic peptides (FIG. 9B). […] Of particular interest were calreticulin, DJ-1 and non-selenium glutathione peroxidase. Calreticulin binds to the AR DNA binding domain to block AR-activated transcription. Therefore, down-regulation of calreticulin expression would typically facilitate AR binding to the AR binding site to transactivate gene expression (Dedhar et al., 1994). Calreticulin also interacts with integrins during cell attachment and spreading (Coppolino and Dedhar, 1999) and a loss or decrease in calreticulin could potentially increase cell motility and increase HPE cell metastatic potential. The RNA binding protein regulatory subunit DJ-1 has oncogenic potential, transforming NIH3T3 cells in cooperation with ras (Nagakubo et al., 1997). DJ-1 also positively regulates AR-activated transcription by binding PIASx alpha and making it unavailable for the AR:PIASx alpha complex which functions to inhibit AR activation (Takahasi et al., 2001). Non-selenium glutathione peroxidase gene was initially identified as a KGF-regulated gene (Munz et al., 1997) and it is highly expressed in the hyperproliferative epithelium at the wound edge.

mutant LNCaP AR = mutant LNCaP AR (Homo sapiens, UniProt P10275, T878A); conditions: LNCaP cells, increasing concentrations of R1881 (10^−12 to 10^−6 M)
endogenous AR = endogenous AR (Homo sapiens, UniProt P10275)
Sequence of endogenous AR (P10275 whole entry): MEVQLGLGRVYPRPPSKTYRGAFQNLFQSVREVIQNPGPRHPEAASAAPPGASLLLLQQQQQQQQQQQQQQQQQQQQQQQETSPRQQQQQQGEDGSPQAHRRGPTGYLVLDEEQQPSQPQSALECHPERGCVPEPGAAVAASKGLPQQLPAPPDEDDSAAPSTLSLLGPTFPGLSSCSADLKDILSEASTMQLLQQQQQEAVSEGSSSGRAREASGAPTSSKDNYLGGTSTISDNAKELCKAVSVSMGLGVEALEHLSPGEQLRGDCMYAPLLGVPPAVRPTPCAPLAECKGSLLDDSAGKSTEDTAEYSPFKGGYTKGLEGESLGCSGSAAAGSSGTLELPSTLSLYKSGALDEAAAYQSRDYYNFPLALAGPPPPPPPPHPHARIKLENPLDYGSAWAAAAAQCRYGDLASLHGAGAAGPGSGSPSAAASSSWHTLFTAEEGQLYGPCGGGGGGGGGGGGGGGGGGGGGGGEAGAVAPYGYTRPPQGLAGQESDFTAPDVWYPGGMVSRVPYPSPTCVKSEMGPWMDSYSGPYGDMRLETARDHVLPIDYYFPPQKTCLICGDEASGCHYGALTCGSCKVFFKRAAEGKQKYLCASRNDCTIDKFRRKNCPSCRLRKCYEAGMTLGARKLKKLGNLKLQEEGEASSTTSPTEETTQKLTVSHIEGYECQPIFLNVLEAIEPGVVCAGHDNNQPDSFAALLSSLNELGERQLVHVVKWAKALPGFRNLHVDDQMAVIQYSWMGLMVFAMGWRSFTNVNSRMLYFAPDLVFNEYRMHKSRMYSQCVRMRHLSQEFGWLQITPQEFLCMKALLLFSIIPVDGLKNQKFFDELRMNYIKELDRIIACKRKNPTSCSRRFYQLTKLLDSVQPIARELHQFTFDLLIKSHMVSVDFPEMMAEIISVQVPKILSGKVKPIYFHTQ

Sequence of mutant LNCaP AR (P10275 whole entry T878A): as the sequence (P10275 whole entry) above, with T878A counted along it

| Compound | Calreticulin expression (HPE cells) | expression of actin (HPE cells) | expression of annexin V (HPE cells) | expression of glutathione S-transferase (HPE cells) | expression of vimentin (HPE cells) | concentration at which near maximal CAT activity was observed (mutant LNCaP AR) | ARR2PB-activated CAT gene expression on addition of androgen (endogenous AR) | CAT gene expression on addition of androgen (endogenous AR) |
| --- | --- | --- | --- | --- | --- | --- | --- | --- |
| C[C@]12CCC(=O)C[C@@H]1CC[C@@H]1[C@@H]2CC[C@]2(C)[C@@H](O)CC[C@@H]12 [DHT] | increased | down-regulated | down-regulated | down-regulated | down-regulated | – | – | – |
| C[C@]1(O)CC[C@H]2[C@@H]3CCC4=CC(=O)CCC4=C3C=C[C@@]21C [R1881] | – | – | – | – | – | 10^−8 M | did not increase these levels any further | did not increase CAT gene expression any further |
